The text below walks through data of ChEMBL document CHEMBL1153689, “Conversion of the phytoestrogen coumestrol into a selective estrogen receptor modulator (SERM) by attachment of an amine-containing sidechain” (Bioorg Med Chem Lett, 1996).

As usually defined, the EC50 is the concentration that produces a half-maximal response. A higher EC50 goes with weaker potency.

This test has as its system MCF7. Nature of the test: Inhibition of MCF-7 cell proliferation. It counts as functional, cell-based. The settings on record: Homo sapiens.

As to `Oc1ccc2c(c1)OC(c1ccc(OCCN3CCCCC3)cc1)c1c-2oc2cc(O)ccc12` (stereo unspecified), the EC50 amounted to 40 nM. This lies in the double-digit nanomolar range.
